From patent publication US12201643B2, “Mechanochemical dynamic for focal cancer treatment” (THE BOARD OF TRUSTEES OF THE UNIVERSITY OF ILLINOIS, priority 2021, dated 2025)

What was measured:
[1] = Arrhenius equation; cited from earlier work
[2] = test system: B16F10 mouse skin melanoma cells; assay type: cell-based
Text: (§1) B16F10 mouse skin melanoma cells were maintained in DMEM (Gibco) supplemented with 10% fetal bovine serum (FBS, Corning), penicillin and streptomycin (Thermo Fisher). B16F10 cells were a generous gift from Dr. Edward Roy at the University of Illinois at Urbana-Champaign. E0771 mouse breast cancer cells (CH3 BioSystems) were maintained in RPMI-1640 (Gibco) supplemented with 10% FBS (Corning), penicillin and streptomycin (Thermo Fisher). For free-radical challenge experiments, 0.05% trypsin dissociated cells were counted and 1×10^4 cells per well were seeded in cell culture-treated 6 well plates (Thermo Fisher) 24 hours before the start of the experiment. […] Cells were then incubated up to 72 hours without media change and counted every 24 hours. […] Staining solution was then replaced by PBS and the cells were imaged on an Olympus inverted fluorescence microscope with 4× objective and FITC filter set. […] Live cells positively stained by Calcein-AM were counted using FIJI (NIH) and averaged over 4 counting fields per well at each time point (FIG. 12). For each image, only the green channel was analyzed. […] Using “Analyze Particles,” the distinct white areas from size 20 (to exclude small artifacts and debris) to size infinity were counted. Cell counts were then compiled and analyzed in Microsoft Excel. […]

[3] = test system: E0771 mouse breast cancer cells; assay type: cell-based
Text: as §1

Structure (SMILES)	activation energy Ea of azo group decomposition [1]	pre-exponential factor A of azo group decomposition [1]	lethal dosage (positive control) [2]	lethal dosage (positive control) [3]
CC(C#N)(CCC(=O)O)N=NC(C)(C#N)CCC(=O)O (stereo not shown) [ACVA, 4,4′-azobis (4-cyanovaleric acid)]	31.76 kcal/mol	6.21e+15 s⁻¹	–	–
OO [H2O2, hydrogen peroxide]	–	–	~50 µM	~30 µM
